# Measurements from patent US7462600B2, “Macrolides” (Pfizer Inc, priority 2004, dated 2008).
# Like-named read-outs stand apart in the source and are kept apart here.
# Columns and labels:
# Type in all cases: cell-based
# [1] = system: Streptococcus pyogenes 1079; assay: MIC, microtiter broth dilution (NCCLS M100-S14), S. pyogenes 1079 (ermB)
# How it was run: (§1)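 Susceptibility testing used microtiter trays with broth dilution. Values are minimum inhibitory concentrations interpreted under NCCLS guidance (M100-S14).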
# [2] = system: Streptococcus pneumoniae 1016; assay: MIC, microtiter broth dilution (NCCLS M100-S14), S. pneumoniae 1016 (susceptible)
# How it was run: as §1
# [3] = system: Streptococcus pneumoniae 1095; conditions: microtiter broth dilution
# How it was run: as §1
# [4] = system: Streptococcus pneumoniae 1175; conditions: microtiter broth dilution
# How it was run: as §1
# [5] = system: Haemophilus influenzae 1218; assay: MIC, microtiter broth dilution (NCCLS M100-S14), H. influenzae 1218 (susceptible)
# How it was run: as §1
# [6] = S. pneumoniae 1016 (susceptible)
# [7] = H. influenzae 1218 (susceptible)
SMILES,MIC S. pyogenes 1079 ([1]; S. pyogenes 1079 (ermB)) [mg/L],"MIC S. pneumo. 1016 [2, 6] [mg/L]",MIC S. pneumo. 1095 ([3]; S. pneumoniae 1095 (ermB)) [mg/L],MIC S. pneumo. 1175 ([4]; S. pneumoniae 1175 (mefA)) [mg/L],"MIC H. influenzae 1218 [5, 7] [mg/L]",MIC S. pyogenes 1079 ([1]; Streptococcus pyogenes 1079) [mg/L],MIC S. pneumo. 1016 ([2]; Streptococcus pneumoniae 1016) [mg/L],MIC S. pneumo. 1095 ([3]; Streptococcus pneumoniae 1095) [mg/L],MIC S. pneumo. 1175 ([4]; Streptococcus pneumoniae 1175) [mg/L],MIC H. influenzae 1218 ([5]; Haemophilus influenzae 1218) [mg/L]
CCC1OC(=O)C(C)C(=O)C(C)C(OC2OC(C)CC(N(C)C)C2O)C(C)(OC)CC(C)C(=O)C(C)C2N(CC3CCCN3C(=O)c3cnn4ccccc34)C(=O)OC12C (stereo not drawn) [10.45],>64.00,<0.06,<0.06,<0.06,1,,,,,
CCC1OC(=O)C(C)C(=O)C(C)C(OC2OC(C)CC(N(C)C)C2O)C(C)(OC)CC(C)C(=O)C(C)C2N(CC3CCN(C(=O)c4cc5ccccn5n4)C3)C(=O)OC12C (stereo not drawn) [13.16],>64.00,<0.06,>64.00,1,16,,,,,
"CCC1OC(=O)C(C)C(=O)C(C)C(OC2OC(C)CC(N(C)C)C2O)C(C)(OC)CC(C)C(=O)C(C)C2N(C3CN(S(=O)(=O)c4ccc5oc(=O)[nH]c5c4)C3)C(=O)OC12C (stereo not drawn) [Example 3.22, 3-descladinosyl-11,12-dideoxy-6-O-methyl-3-oxo-12,11-(oxycarbonyl-(1-(2,3-dihydro-2-oxobenzo[d]oxazole-5-sulfonyl)-azetidin-3-yl)-imino)-erythromycin A]",,,,,,1,<0.06,4,0.5,0.25
"CCC1OC(=O)C(C)C(=O)C(C)C(OC2OC(C)CC(N(C)C)C2O)C(C)(OC)CC(C)C(=O)C(C)C2N(C3CN(Cc4cccn5nccc45)C3)C(=O)OC12C (stereo not drawn) [Example 1.83, 3-descladinosyl-11,12-dideoxy-6-O-methyl-3-oxo-12,11-(oxycarbonyl-(1-(H-pyrazolo[1,5-a]pyridine-4-methyl)-azetidin-3-yl)-imino)-erythromycin A]",,,,,,4,<0.063,<0.063,<0.063,1
CCC1OC(=O)C(C)C(=O)C(C)C(OC2OC(C)CC(N(C)C)C2O)C(C)(OC)CC(C)C(=O)C(C)C2N(CC3CCCN3C(=O)c3cccc4cccnc34)C(=O)OC12C.O=CO (stereo not drawn) [10.11],>64.00,<0.06,0.5,4,16,,,,,
"CCC1OC(=O)C(C)C(=O)C(C)C(OC2OC(C)CC(N(C)C)C2O)C(C)(OC)CC(C)C(=O)C(C)C2N(C3CN(C(C)c4ccnc5cccnc45)C3)C(=O)OC12C (stereo not drawn) [Example 1.37, 3-descladinosyl-11,12-dideoxy-6-O-methyl-3-oxo-12,11-(oxycarbonyl-(1-(1R-(1,5-naphthyridin-4-yl)-ethyl)-azetidin-3-yl)-imino)erythromycin A]",,,,,,4,<0.06,<0.06,0.25,1
"CCC1OC(=O)C(C)C(=O)C(C)C(OC2OC(C)CC(N(C)C)C2O)C(C)(OC)CC(C)C(=O)C(C)C2N(C3CN(Cc4c(OC)ccc5ccccc45)C3)C(=O)OC12C (stereo not drawn) [Example 1.86, 3-descladinosyl-11,12-dideoxy-6-O-methyl-3-oxo-12,11-(oxycarbonyl-(1-(2-methoxynaphthalene-1-methyl)-azetidin-3-yl)-imino)-erythromycin A]",,,,,,1,<0.063,0.125,<0.063,1
"CCC1OC(=O)C(C)C(=O)C(C)C(OC2OC(C)CC(N(C)C)C2O)C(C)(OC)CC(C)C(=O)C(C)C2N(C3CN(Cc4ccnc5ncccc45)C3)C(=O)OC12C (stereo not drawn) [Example 1.20, 3-descladinosyl-11,12-dideoxy-6-O-methyl-3-oxo-12,11-(oxycarbonyl-(1-((1,8-naphthyridin-4-yl)-methyl)-azetidin-3-yl)-imino)erythromycin A]",,,,,,1,<0.06,<0.06,0.12,0.25
"CCC1OC(=O)C(C)C(=O)C(C)C(OC2OC(C)CC(N(C)C)C2O)C(C)(OC)CC(C)C(=O)C(C)C2N(C3CN(C(C)c4ccnc5cccnc45)C3)C(=O)OC12C (stereo not drawn) [Example 1.38, 3-descladinosyl-11,12-dideoxy-6-O-methyl-3-oxo-12,11-(oxycarbonyl-(1-(1S-(1,5-naphthyridin-4-yl)-ethyl)-azetidin-3-yl)-imino)erythromycin A]",,,,,,4,<0.06,<0.06,0.25,1
